Data on 2 compounds can be found in article PMC13342644, “Structural basis for transport and inhibition of nucleotide sugar transport in pathogenic fungi” (Nature Communications, 2026).

Each structure is given as a SMILES string.

In test [1] the test system is Vrg4 liposomes. It is filed as biochemical. To be noted: liposome assays, GDP-mannose versus GMP as antiport substrate.
Test [2] concerns NDY5 yeast containing an empty yEP181 vector. Briefly: Hygromycin B-based in vivo viability (growth) assay. It is filed as cell-based, Saccharomyces cerevisiae. The method, then:
The yeast was grown in minimal media to select for the plasmids, and the expression of the nanobody was induced with galactose. After overnight galactose induction, the yeast culture was diluted, and growth was monitored over 30 h.
An overnight culture was grown in minus -Leu-Ura medium containing 2% glucose and then diluted 1:10 into medium containing 2% lactate. After 9 h of growth, 2% galactose was added, and the cultures were left overnight. […] The cultures were grown at 30 °C with shaking, and growth was monitored over the next 30 h by measuring the OD.

For the compound `Nc1nc2c(ncn2[C@@H]2O[C@H](COP(=O)(O)OP(=O)(O)O[C@H]3O[C@H](CO)[C@@H](O)[C@H](O)[C@@H]3O)[C@@H](O)[C@H]2O)c(=O)[nH]1` [GDP-mannose], in test [1], the “Transport rate as antiport substrate, in words” value was “faster transport rates and greater overall uptake”.

`CN[C@H]1C[C@@H](N)[C@H](O)[C@@H](O[C@@H]2O[C@H](CO)[C@H](O)[C@@H]3OC4(O[C@H]23)O[C@H]([C@@H](N)CO)[C@H](O)[C@H](O)[C@H]4O)[C@@H]1O` (some centres unmarked) [hygromycin B]: the “Growth / sensitivity to hygromycin B, in words” value in test [2] is recorded as “sensitive”.
